ChEMBL document CHEMBL4359836, “Synthesis and Biological Assessment of Pyrrolobenzoxazine Scaffold as a Potent Antioxidant” (J Med Chem, 2019)
Calls of active or inactive are those of the source. The rule behind the calls is not given here.

How the values were obtained:
[1] = Antioxidant activity in pH 7.4 phosphate buffer assessed as H2O2 scavenging activity by measuring H2O2 decomposition at 1.34 to 10.72 uM by spectrophotometric analysis; format: functional
[2] = Antioxidant activity in pH 7.4 potassium phosphate buffer assessed as CuCl2/ascorbic acid induced hydroxyl radical scavenging activity by measuring deoxyribose degradation product formation after 20 mins by thiobarbituric acid based absorbance analysis; format: functional
[3] = Pro-oxidant activity in pH 7.4 potassium phosphate buffer assessed as reduction in CuCl2/ascorbic acid induced hydroxyl radical scavenging activity at > 66 uM in presence of deoxyribose by measuring deoxyribose degradation product formation after 20 mins by thiobarbituric acid based absorbance analysis
[4] = Antioxidant activity in pH 7.4 potassium phosphate buffer assessed as CuCl2/ascorbic acid induced hydroxyl radical scavenging activity at 66 uM in presence of deoxyribose after 20 mins by thiobarbituric acid based absorbance analysis (reference value: 0.617 +/- 0.02%); format: functional
[5] = Pro-oxidant activity in pH 10 Tris-HCl buffer assessed as reduction in superoxide anion radical scavenging activity by measuring rate of epinephrine auto-oxidation at 10.72 uM by spectrophotometric analysis
[6] = Antioxidant activity in pH 10 Tris-HCl buffer assessed as superoxide anion radical scavenging activity by measuring rate of epinephrine auto-oxidation by spectrophotometric analysis; format: functional
[7] = Antioxidant activity in pH 10 Tris-HCl buffer assessed as superoxide anion radical scavenging activity by measuring rate of epinephrine auto-oxidation at 8.04 uM by spectrophotometric analysis (reference value: 0.0186 +/- 0.004%); format: functional
[8] = Antioxidant activity in pH 7.4 phosphate buffer assessed as DPPH radical scavenging activity at 4 to 100 uM after 30 mins by spectrophotometric analysis (reference value: 0.811 +/- 0.02%); format: functional
[9] = Reducing power of the compound assessed as reducing Fe3+ power at 80 uM using K3Fe(CN)6 in pH 6.6 phosphate buffer after 20 mins by spectrophotometric analysis
[10] = Antioxidant activity in pH 7.4 potassium phosphate buffer assessed as CuCl2/ascorbic acid induced hydroxyl radical scavenging activity by measuring trolox equivalent antioxidant capacity by measuring IC50 Trolox/IC50 test compound ratio in presence of deoxyribose by thiobarbituric acid based absorbance analysis; format: functional
[11] = Antioxidant activity in pH 10 Tris-HCl buffer assessed as superoxide anion radical scavenging activity by measuring rate of epinephrine auto-oxidation at 10.72 uM by spectrophotometric analysis (reference value: 0.0186 +/- 0.004%); format: functional
[12] = Antioxidant activity in pH 7.4 phosphate buffer assessed as DPPH radical scavenging activity after 30 mins by spectrophotometric analysis; format: functional

For `CCOC(=O)c1c(-c2cc(OC)c(OC)c(OC)c2)cn2c1c(=O)oc1ccccc12`, the Activity [1] was “inactive”, the Activity [2] was “Dose-dependent effect” and the IC50 [2] was 4.8 µM. For the same molecule, the Activity [3] was “Active”, the Activity [4] was 92% and the Activity [5] was “Active”. The Activity [6] was “Dose-dependent effect”, the Activity [7] was 83% and the Activity [8] was < 14%. The Activity [9] was “inactive” and the Ratio IC50 [10] was 2.06.
In the case of `COC(=O)c1c(-c2cccc(Cl)c2)cn2c1c(=O)oc1ccccc12`, the Activity [1] is reported as “inactive”, the Activity [2] is reported as “Dose-dependent effect” and the IC50 [2] is reported as 8.4 µM. For the same molecule, the Activity [3] was “Active”, the Activity [4] was 90% and the Activity [6] was “Dose-dependent effect”. The Activity [8] was < 14%, the Activity [11] was 83% and the Activity [9] was “inactive”. The Ratio IC50 [10] was 1.18.
Molecule `Cc1c(C)c2c(c(C)c1O)CCC(C)(C(=O)O)O2` (stereo unspecified) [TROLOX] has an IC50 [2] of 9.9 µM and an IC50 [12] of 36.4 µM.
With `CCOC(=O)c1c(-c2ccc(C)cc2)cn2c1c(=O)oc1ccccc12` the Activity [1] was “inactive”, the Activity [2] was “Dose-dependent effect” and the IC50 [2] was 10.4 µM. For the same molecule, the Activity [3] was “Active”, the Activity [6] was “Dose-dependent effect” and the Activity [8] was < 14%. For the same molecule, the Activity [9] was “Dose-dependent effect” and the Ratio IC50 [10] was 0.95.
